These are literature values, as cited in patent US10028963B2, “Methods for treating intrapulmonary infections” (priority 2011, dated 2018).

For this data set the following is noted: patients treated for nosocomial pneumonia.

For `CN(C)c1cc(NC(=O)CNC(C)(C)C)c(O)c2c1C[C@H]1C[C@H]3[C@H](N(C)C)C(=O)C(C(N)=O)=C(O)[C@@]3(O)C(=O)C1=C2O` [tigicycline], the “Mortality risk compared to other drugs” value is given as “increased mortality risk”.
